For the test, the system named is BDF1 mice, colon carcinoma 38 sc, T/C %. Nature of the test: NCI In Vivo Anticancer Drug Screen. Data for tumor model Colon Carcinoma 38 (subcutaneous) in B6D2F1 (BDF1) mice. In outline:
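Compound antitumor activity was assessed in mice carrying transplantable tumors. Survival or tumor size was recorded, and each value is the treated-group measurement divided by that of the vehicle-treated control group.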

Where [1] appears, read: endpoint: median tumor weight (est.), dose: 12.5 mg/kg/injection, schedule: Q07DX002 (ip), vehicle: Klucel (hydroxypropylcellulose) (HPC), higher = larger tumour.
The mark [2] stands for this setting: endpoint: median tumor weight (est.), dose: 25.0 mg/kg/injection, schedule: Q07DX002 (ip), vehicle: Klucel (hydroxypropylcellulose) (HPC), higher = larger tumour.
[3] abbreviates: endpoint: median tumor weight (est.), dose: 50.0 mg/kg/injection, schedule: Q07DX002 (ip), vehicle: Klucel (hydroxypropylcellulose) (HPC), higher = larger tumour.
Setting [4] is: endpoint: median tumor weight (est.), dose: 400.0 mg/kg/injection, schedule: Q07DX002 (ip), vehicle: Klucel (hydroxypropylcellulose) (HPC), higher = larger tumour.
Setting [5] is: endpoint: median tumor weight (est.), dose: 25.0 mg/kg/injection, schedule: Q07DX002 (ip), vehicle: saline with Tween-80, higher = larger tumour.
Setting [6] is: endpoint: median tumor weight (est.), dose: 50.0 mg/kg/injection, schedule: Q07DX002 (ip), vehicle: saline with Tween-80, higher = larger tumour.
[7] abbreviates: endpoint: median tumor weight (est.), dose: 100.0 mg/kg/injection, schedule: Q07DX002 (ip), vehicle: saline with Tween-80, higher = larger tumour.
Setting [8] is: endpoint: median tumor weight (est.), dose: 1.0 mg/kg/injection, schedule: Q07DX002 (ip), vehicle: water, higher = larger tumour.
Setting [9] is: endpoint: median tumor weight (est.), dose: 6.25 mg/kg/injection, schedule: Q07DX002 (ip), vehicle: saline, higher = larger tumour.
The mark [10] stands for this setting: endpoint: median tumor weight (est.), dose: 200.0 mg/kg/injection, schedule: Q07DX002 (ip), vehicle: saline, higher = larger tumour.

Where “and” joins values, the source holds several entries; their conditions need not be identical. Equal values may be shown once. Inconclusive results are not listed.

The values below come from PubChem BioAssay AID212 (DTP/NCI, 2004).

On to `CO[C@H]1C[C@](C)(O)Cc2cc3c(c(O)c21)C(=O)c1c(O)cc2c(c1C3=O)O[C@@H]1O[C@@]2(C)[C@H](O)[C@@H](N(C)C)[C@@H]1O`, for which the T/C runs as follows: (endpoint: median survival time, dose: 72.0 mg/kg/injection, schedule: Q07DX003 (sc), vehicle: other, higher = longer survival) 166 % of control; (endpoint: median tumor weight (est.), dose: 12.5 mg/kg/injection, schedule: Q07DX002 (ip), vehicle: other, higher = larger tumour) 69 % of control; (endpoint: median tumor weight (est.), dose: 25.0 mg/kg/injection, schedule: Q07DX002 (ip), vehicle: other, higher = larger tumour) 21 % of control and 41 % of control; (endpoint: median tumor weight (est.), dose: 50.0 mg/kg/injection, schedule: Q07DX002 (ip), vehicle: other, higher = larger tumour) 1 % of control.
With `O=C1CC2(C(=O)N1CN1CCCCC1)c1ccccc1-c1ccccc12`, the T/C is 58 % of control under setting [1]; 97 % of control under setting [2]; 68 % of control under setting [3]; 102 % of control (endpoint: median tumor weight (est.), dose: 100.0 mg/kg/injection, schedule: Q07DX002 (ip), vehicle: Klucel (hydroxypropylcellulose) (HPC), higher = larger tumour); 101 % of control (endpoint: median tumor weight (est.), dose: 200.0 mg/kg/injection, schedule: Q07DX002 (ip), vehicle: Klucel (hydroxypropylcellulose) (HPC), higher = larger tumour); 81 % of control under setting [4].
For `CCCCCCCCCCCCCCCC(=O)OCC1OC(n2ccc(N)nc2=O)C(O)C1O` (configuration not stated), the T/C runs as follows: under setting [5], 72 % of control; under setting [6], 36 % of control; under setting [7], 7 % of control.
In the case of `CC(C)(C)N1CC1CNC(=O)C(=O)NCC1CN1C(C)(C)C` (configuration not stated), for the setting “endpoint: median tumor weight (est.), dose: 3.12 mg/kg/injection, schedule: Q07DX002 (ip), vehicle: saline with Tween-80, higher = larger tumour”, the T/C was 81 % of control and 106 % of control.
`CC(=O)O[C@@H]1CO[C@H]2O[C@H]3[C@@H](C(C=O)=C[C@H](O)[C@@H]4C5=C(C(C)C)CC[C@]5(C)CC[C@@]34C)[C@@]2(O)C1=O`: the T/C is, setting by setting: (endpoint: median tumor weight (est.), dose: 1.5 mg/kg/injection, schedule: Q07DX002 (ip), vehicle: Klucel (hydroxypropylcellulose) (HPC), higher = larger tumour) 57 % of control; (endpoint: median tumor weight (est.), dose: 3.0 mg/kg/injection, schedule: Q07DX002 (ip), vehicle: Klucel (hydroxypropylcellulose) (HPC), higher = larger tumour) 80 % of control; (endpoint: median tumor weight (est.), dose: 6.0 mg/kg/injection, schedule: Q07DX002 (ip), vehicle: Klucel (hydroxypropylcellulose) (HPC), higher = larger tumour) 61 % of control; (endpoint: median tumor weight (est.), dose: 12.0 mg/kg/injection, schedule: Q07DX002 (ip), vehicle: Klucel (hydroxypropylcellulose) (HPC), higher = larger tumour) 86 % of control.
On to `S=P(N1CC1)(N1CC1)N1CC1`, for which the T/C runs as follows: (endpoint: median tumor weight (est.), dose: 1.5 mg/kg/injection, schedule: Q07DX003 (ip), vehicle: saline, higher = larger tumour) 99 % of control; (endpoint: median tumor weight (est.), dose: 3.0 mg/kg/injection, schedule: Q07DX003 (ip), vehicle: saline, higher = larger tumour) 50 % of control; (endpoint: median tumor weight (est.), dose: 6.0 mg/kg/injection, schedule: Q07DX003 (ip), vehicle: saline, higher = larger tumour) 55 % of control.
Consider `C[n+]1cccc(NC(=O)c2ccc(NC(=O)C34CCC(C(=O)Nc5ccc(C(=O)Nc6ccc[n+](C)c6)cc5)(CC3)CC4)cc2)c1`, for which the T/C is, setting by setting: (endpoint: median tumor weight (est.), dose: 10.0 mg/kg/injection, schedule: Q07DX002 (ip), vehicle: saline with Tween-80, higher = larger tumour) 60 % of control; (endpoint: median tumor weight (est.), dose: 20.0 mg/kg/injection, schedule: Q07DX002 (ip), vehicle: saline with Tween-80, higher = larger tumour) 57 % of control; (endpoint: median tumor weight (est.), dose: 22.5 mg/kg/injection, schedule: Q07DX002 (ip), vehicle: saline with Tween-80, higher = larger tumour) 93 % of control; (endpoint: median tumor weight (est.), dose: 40.0 mg/kg/injection, schedule: Q07DX002 (ip), vehicle: saline with Tween-80, higher = larger tumour) 28 % of control; (endpoint: median tumor weight (est.), dose: 45.0 mg/kg/injection, schedule: Q07DX002 (ip), vehicle: saline with Tween-80, higher = larger tumour) 71 % of control; (endpoint: median tumor weight (est.), dose: 80.0 mg/kg/injection, schedule: Q07DX002 (ip), vehicle: saline with Tween-80, higher = larger tumour) 20 % of control. Besides, the T/C (endpoint: median tumor weight (est.), dose: 90.0 mg/kg/injection, schedule: Q07DX002 (ip), vehicle: saline with Tween-80, higher = larger tumour) is 109 % of control.
With `CC1OC(=O)C(C(C)C)NC(=O)C(C(C)C)OC(=O)C(C(C)C)NC(=O)C(C)OC(=O)C(C(C)C)NC(=O)C(C(C)C)OC(=O)C(C(C)C)NC(=O)C(C)OC(=O)C(C(C)C)NC(=O)C(C(C)C)OC(=O)C(C(C)C)NC1=O` (configuration not stated), the T/C reads like this: (endpoint: median tumor weight (est.), dose: 2.5 mg/kg/injection, schedule: Q07DX003 (ip), vehicle: saline with Tween-80, higher = larger tumour) 71 % of control and 90 % of control; (endpoint: median tumor weight (est.), dose: 5.0 mg/kg/injection, schedule: Q07DX003 (ip), vehicle: saline with Tween-80, higher = larger tumour) 79 % of control; (endpoint: median tumor weight (est.), dose: 40.0 mg/kg/injection, schedule: Q07DX003 (ip), vehicle: saline with Tween-80, higher = larger tumour) 37 % of control.
Regarding `NCCc1ccc(O)c(O)c1`, the T/C by setting is: (endpoint: median tumor weight (est.), dose: 112.5 mg/kg/injection, schedule: Q07DX002 (ip), vehicle: Klucel (hydroxypropylcellulose) (HPC), higher = larger tumour) 122 % of control; (endpoint: median tumor weight (est.), dose: 225.0 mg/kg/injection, schedule: Q07DX002 (ip), vehicle: Klucel (hydroxypropylcellulose) (HPC), higher = larger tumour) 109 % of control and 87 % of control; (endpoint: median tumor weight (est.), dose: 450.0 mg/kg/injection, schedule: Q07DX002 (ip), vehicle: Klucel (hydroxypropylcellulose) (HPC), higher = larger tumour) 113 % of control and 103 % of control; (endpoint: median tumor weight (est.), dose: 900.0 mg/kg/injection, schedule: Q07DX002 (ip), vehicle: Klucel (hydroxypropylcellulose) (HPC), higher = larger tumour) 95 % of control and 97 % of control.
Consider `C[n+]1ccc(Nc2ccc(NC(=O)c3ccc(Nc4cc[n+](C)c5ccc(N)cc45)cc3)cc2)cc1`, for which the T/C is, setting by setting: (endpoint: median tumor weight (est.), dose: 0.5 mg/kg/injection, schedule: Q07DX002 (ip), vehicle: water, higher = larger tumour) 99 % of control; under setting [8], 86 % of control; (endpoint: median tumor weight (est.), dose: 2.0 mg/kg/injection, schedule: Q07DX002 (ip), vehicle: water, higher = larger tumour) 93 % of control.
As to `COc1ccc(-c2csc(=[N+]3CCCCC3)s2)cc1`, the T/C by setting is: (endpoint: median tumor weight (est.), dose: 3.13 mg/kg/injection, schedule: Q07DX002 (ip), vehicle: water, higher = larger tumour) 107 % of control; (endpoint: median tumor weight (est.), dose: 6.25 mg/kg/injection, schedule: Q07DX002 (ip), vehicle: water, higher = larger tumour) 105 % of control; (endpoint: median tumor weight (est.), dose: 12.5 mg/kg/injection, schedule: Q07DX002 (ip), vehicle: water, higher = larger tumour) 116 % of control; (endpoint: median tumor weight (est.), dose: 25.0 mg/kg/injection, schedule: Q07DX002 (ip), vehicle: water, higher = larger tumour) 123 % of control; (endpoint: median tumor weight (est.), dose: 50.0 mg/kg/injection, schedule: Q07DX002 (ip), vehicle: water, higher = larger tumour) 121 % of control.
Consider `O=c1oc2c(O)c(O)cc3c(=O)oc4c(O)c(O)cc1c4c23`, for which the T/C by setting is: under setting [1], 195 % of control; under setting [2], 200 % of control; under setting [3], 181 % of control; under setting [4], 155 % of control.
`N#CC(C#N)=C/C=C/c1cccc([N+](=O)[O-])c1`: the T/C runs as follows: (endpoint: median tumor weight (est.), dose: 6.25 mg/kg/injection, schedule: Q07DX003 (ip), vehicle: Klucel (hydroxypropylcellulose) (HPC), higher = larger tumour) 79 % of control; (endpoint: median tumor weight (est.), dose: 12.5 mg/kg/injection, schedule: Q07DX003 (ip), vehicle: Klucel (hydroxypropylcellulose) (HPC), higher = larger tumour) 77 % of control; (endpoint: median tumor weight (est.), dose: 25.0 mg/kg/injection, schedule: Q07DX003 (ip), vehicle: Klucel (hydroxypropylcellulose) (HPC), higher = larger tumour) 76 % of control; (endpoint: median tumor weight (est.), dose: 50.0 mg/kg/injection, schedule: Q07DX003 (ip), vehicle: Klucel (hydroxypropylcellulose) (HPC), higher = larger tumour) 60 % of control.
Take `CC(=O)Oc1c(C)[nH]ccc1=O`: the T/C reads like this: under setting [9], 107 % of control; under setting [10], 107 % of control.
For `CCCCCC#CC1OC12CCCCC2` (configuration not stated), the T/C is, setting by setting: under setting [9], 17 % of control; (endpoint: median tumor weight (est.), dose: 12.5 mg/kg/injection, schedule: Q07DX002 (ip), vehicle: saline with Tween-80, higher = larger tumour) 88 % of control; under setting [5], 122 % of control; (endpoint: median tumor weight (est.), dose: 25.0 mg/kg/injection, schedule: Q07DX002 (ip), vehicle: saline, higher = larger tumour) 64 % of control and 66 % of control; under setting [6], 91 % of control; (endpoint: median tumor weight (est.), dose: 50.0 mg/kg/injection, schedule: Q07DX002 (ip), vehicle: saline, higher = larger tumour) 24 % of control. The T/C is 169 % of control under setting [7]; 103 % of control (endpoint: median tumor weight (est.), dose: 200.0 mg/kg/injection, schedule: Q07DX002 (ip), vehicle: saline with Tween-80, higher = larger tumour); 38 % of control and 41 % of control under setting [10].
With `CC1=CC2C(O)(CC(CO)=CC3C4C(C)(C)C4(OC(=O)c4ccccc4)C(OC(=O)c4ccccc4)C(C)C32O)C1=O` (configuration not stated), the T/C is, setting by setting: (endpoint: median tumor weight (est.), dose: 0.5 mg/kg/injection, schedule: Q07DX002 (ip), vehicle: saline with Tween-80, higher = larger tumour) 156 % of control; (endpoint: median tumor weight (est.), dose: 2.0 mg/kg/injection, schedule: Q07DX002 (ip), vehicle: saline with Tween-80, higher = larger tumour) 167 % of control.
As to `C[n+]1c(-c2cccc(OCCOCCOc3cccc(-c4c5cc(N)ccc5c5ccc(N)cc5[n+]4C)c3)c2)c2cc(N)ccc2c2ccc(N)cc21`, the T/C is 53 % of control under setting [8]; 44 % of control and 45 % of control (endpoint: median tumor weight (est.), dose: 4.0 mg/kg/injection, schedule: Q07DX002 (ip), vehicle: water, higher = larger tumour); 81 % of control (endpoint: median tumor weight (est.), dose: 32.0 mg/kg/injection, schedule: Q07DX002 (ip), vehicle: water, higher = larger tumour).
